No end group written: not given here.
Tests used:
[1] = system: Fibroblast Growth Factor; experiment: FGF production by Human Dermal Fibroblast cells, ELISA; format: cell-based; conditions: HDF cells, graded concentrations, 48 hrs, vs un-treated cells; values only in Fig. 2
Description: (§1) Evaluation of Transforming Growth factor beta (TGF-β) and Fibroblast Growth Factor (FGF): Human Dermal Fibroblast (HDF) cells were cultured in DMEM medium with 10% FBS and seeded in 96 well tissue culture plate for the test. […] After 48hrs the supernatant was collected from each well. The amount of TGF-β and FGF produced by the various treated HDF was quantified using ELISA method according to the kit protocol provided by the manufacturer (R&D Systems) and absorbance was measured at 450 nm using Fluostar Optima. Standard curve was generated by plotting absorbance values of standards against appropriate TGF-β/ FGF concentrations. TGF-β/ FGF concentrations of the control and test samples were calculated from the standard graph equation. Percentage increase of expression in test samples was calculated with respect to un-treated cells. The results of the experiment are exemplified in Figs. 1 and 2 respectively. The importance of TGF- β1 in the synthesis of extracellular matrix in well established in • 1. Yang T et al, "miR-29 mediates TGFβ1-induced extracellular matrix synthesis through activation of PI3K-AKT pathway in human lung fibroblasts", J Cell Biochem. 2013 Jun;114(6):1336-42; • 2. Tan J et al, "MicroRNA-29 mediates TGFβ1-induced extracellular matrix synthesis by targeting wnt/β-catenin pathway in human orbital fibroblasts." Int J Clin Exp Pathol. 2014 Oct 15;7(11):7571-7; • 3. […]

[2] = system: KLK5; conditions: gene KLK5 (kallikrein-related peptidase 5); EFT-400 culture, 100 µL applied, 24 hours
Description: (§2) The objective of the study was to understand how application of test composition containing peptide of SEQ ID No. 1 linked to oleanolic acid represented by STR#1 influences gene expression in the skin. The current study was conducted using a full-thickness in vitro skin culture model (EFT-400, MatTek). One hundred microliters of Test Material was applied to the surface of each test culture and incubated for a period of 24 hours.
(§3) Treatment and Maintenance of cultures: 100 µL of test composition containing peptide of SEQ ID No. 1 linked to oleanolic acid represented by STR#1 was applied to the center of each EFT-400 culture. A sterile glass spreader was used to distribute the Test Material. Each culture was visually inspected to ensure even distribution. Following application, the cultures were returned to the incubator at 37°C with 5% CO2 for 24 hours. After 24 hours, the Test Materials were washed from the surface of each culture with sterile PBS. Following removal of test material, each culture was cut into quarters and placed into RNA solution.
(§4) RNA Isolation: RNA was isolated from tissues using a Maxwell 16 LEV RNA Tissue kit following the manufacturer's instructions (Promega) and vacuum concentrated until >200ng/uL as required for OpenArray processing. RNA concentration and purity were determined using a Nanodrop 2000 spectrophotometer. cDNA synthesis: cDNA was generated using a High Capacity cDNA Synthesis Kit according to the manufacturer's instructions for OpenArray processing (Life Technologies).
(§5) qPCR Processing: qPCR reactions were run using validated Taqman gene expression assays in an OpenArray format. OpenArrays were run in a Life Technologies QuantStudio 12K Flex instrument.
(§6) Data Analysis: qPCR data was imported into RealTime StatMiner software v4.2 for statistical analysis using the relative quantitation (RQ) method. In the first step of an RQ analysis, the CT value of the target gene is normalized to the CT value of an endogenous control gene for each sample to generate the delta CT (dCT).

[3] = system: CALML5; conditions: gene CALML5 (calmodulin-like 5); EFT-400 culture, 100 µL applied, 24 hours
Description: as §2, §3, §4, §5, §6

[4] = system: FLG; conditions: gene FLG (filaggrin); EFT-400 culture, 100 µL applied, 24 hours
Description: as §2, §3, §4, §5, §6

[5] = system: ILIA; conditions: gene ILIA (interleukin 1, alpha); EFT-400 culture, 100 µL applied, 24 hours
Description: as §2, §3, §4, §5, §6

[6] = system: PTGS2; conditions: gene PTGS2 (Prostaglandin endoperoxide synthase 2/ COX2); EFT-400 culture, 100 µL applied, 24 hours
Description: as §2, §3, §4, §5, §6

[7] = system: CDSN; conditions: gene CDSN (corneodesmosin); EFT-400 culture, 100 µL applied, 24 hours
Description: as §2, §3, §4, §5, §6

[8] = system: PPARD; conditions: gene PPARD (peroxisome proliferator-activated receptor); EFT-400 culture, 100 µL applied, 24 hours
Description: as §2, §3, §4, §5, §6

[9] = system: LCE3D; conditions: gene LCE3D (late cornified envelope 3D); EFT-400 culture, 100 µL applied, 24 hours
Description: as §2, §3, §4, §5, §6

[10] = system: LOR; conditions: gene LOR (loricrin); EFT-400 culture, 100 µL applied, 24 hours
Description: as §2, §3, §4, §5, §6

[11] = system: KRT4; conditions: gene KRT4 (keratin 4); EFT-400 culture, 100 µL applied, 24 hours
Description: as §2, §3, §4, §5, §6

[12] = system: IL8; conditions: gene IL8 (interleukin 8); EFT-400 culture, 100 µL applied, 24 hours
Description: as §2, §3, §4, §5, §6

[13] = system: CLDN7; conditions: gene CLDN7 (claudin 7); EFT-400 culture, 100 µL applied, 24 hours
Description: as §2, §3, §4, §5, §6

[14] = system: KRT10; conditions: gene KRT10 (keratin 10); EFT-400 culture, 100 µL applied, 24 hours
Description: as §2, §3, §4, §5, §6

[15] = system: TP63; conditions: gene TP63 (tumor protein p63); EFT-400 culture, 100 µL applied, 24 hours
Description: as §2, §3, §4, §5, §6

[16] = system: MKI67; conditions: gene MKI67 (antigen identified by Ki-67 antibody); EFT-400 culture, 100 µL applied, 24 hours
Description: as §2, §3, §4, §5, §6

[17] = system: TGFB1; conditions: gene TGFB1 (transforming growth factor, beta 1); EFT-400 culture, 100 µL applied, 24 hours
Description: as §2, §3, §4, §5, §6

[18] = system: ITGB4; conditions: gene ITGB4 (integrin, beta 4); EFT-400 culture, 100 µL applied, 24 hours
Description: as §2, §3, §4, §5, §6

[19] = system: HSP-47; conditions: EFT-400 culture, 100 µL applied, 24 hours; values only in Fig. 5
Description: as §2, §3, §4, §5, §6

[20] = system: AQP5; conditions: gene AQP5 (aquaporin 5); EFT-400 culture, 100 µL applied, 24 hours
Description: as §2, §3, §4, §5, §6

[21] = system: TNF; conditions: gene TNF (tumor necrosis factor (TNFsuperfamily,member)); EFT-400 culture, 100 µL applied, 24 hours
Description: as §2, §3, §4, §5, §6

[22] = system: BMP2; conditions: gene BMP2 (bone morphogenetic protein 2); EFT-400 culture, 100 µL applied, 24 hours
Description: as §2, §3, §4, §5, §6

[23] = system: DSG3; conditions: gene DSG3 (desmoglein 3); EFT-400 culture, 100 µL applied, 24 hours
Description: as §2, §3, §4, §5, §6

[24] = system: Transforming Growth Factor-β (TGF- β); experiment: TGF-β production by Human Dermal Fibroblast cells, ELISA; format: cell-based; conditions: HDF cells, graded concentrations, 48 hrs, vs un-treated cells; values only in Fig. 1
Description: as §1

[25] = system: TIMP; experiment: Gene expression analysis, full-thickness in vitro skin culture model (EFT-400), qPCR; format: cell-based, human; conditions: EFT-400 culture, 100 µL applied, 24 hours; values only in Fig. 6
Text: (§7) Each culture was visually inspected to ensure even distribution.

[26] = system: HSP-90; experiment: as above; format: cell-based, human; conditions: EFT-400 culture, 100 µL applied, 24 hours; values only in Fig. 3
Text: as §7

[27] = system: LOX; experiment: as above; format: cell-based, human; conditions: EFT-400 culture, 100 µL applied, 24 hours; values only in Fig. 4
Text: as §7

With “test composition containing peptide of SEQ ID No. 1: peptide of SEQ ID No. 1 linked to oleanolic acid represented by STR#1; pentapeptide conjugate of oleanolic acid (KTTKS; also: linked to oleanolic acid, place not given here)” as the substance, how does the “fibroblast growth factor expression in human dermal fibroblasts” value [1] read?
The value was “increase”.

And the “Fold Increase” value [2]?
Its value is 2.44 Fold.

What about the “Fold Increase” value [3] of the same substance?
The value was 1.91 Fold.

What about the “Fold Increase” value [4] of the same substance?
The value was 2.23 Fold.

And the “Fold Decrease” value [5]?
Its value is -1.77 Fold.

What about the “Fold Decrease” value [6] of the same substance?
Its value is -1.80 Fold.

And the “Fold Increase” value [7]?
The value was 1.78 Fold.

What about the “Fold Increase” value [8] of the same substance?
The value was 1.59 Fold.

And the “Fold Increase” value [9]?
The value was 1.61 Fold.

What about the “Fold Increase” value [10] of the same substance?
Its value is 1.63 Fold.

What about the “Fold Decrease” value [11] of the same substance?
The value was -2.11 Fold.

What about the “Fold Decrease” value [12] of the same substance?
The value was -1.68 Fold.

What about the “Fold Increase” value [13] of the same substance?
Its value is 1.69 Fold.

What about the “Fold Decrease” value [14] of the same substance?
Its value is -1.71 Fold.

What about the “Fold Increase” value [15] of the same substance?
The value was 1.56 Fold.

And the “Fold Increase” value [16]?
Its value is 1.83 Fold.

What about the “Fold Increase” value [17] of the same substance?
Its value is 1.72 Fold.

And the “Fold Increase” value [18]?
Its value is 1.76 Fold.

And the “skin expression of HSP-47 gene” value [19]?
The value was “Up-regulation”.

What about the “Fold Increase” value [20] of the same substance?
The value was 1.97 Fold.

And the “Fold Decrease” value [21]?
The value was -4.34 Fold.

What about the “Fold Increase” value [22] of the same substance?
The value was 1.80 Fold.

What about the “Fold Increase” value [23] of the same substance?
The value was 2.19 Fold.

What about the “TGF- β expression in human dermal fibroblasts” value [24] of the same substance?
The value was “increase”.

And the “skin expression of TIMP gene” value [25]?
Its value is “Up-regulation”.

And the “skin expression of HSP-90 gene” value [26]?
Its value is “Up-regulation”.

What about the “skin expression of LOX gene” value [27] of the same substance?
Its value is “Up-regulation”.

Reference: patent publication EP3253400B1, “OLEANOYL PEPTIDE COMPOSITION” (Majeed, Muhammed, priority 2015, dated 2023)
